Measured values: US7521458B2, “Spiropiperidylrifamycins for the treatment of mycobacterial infections” (priority 2004, dated 2009)

Experiments:
Type in all cases: cell-based
[1] = tested on: Mycobacterium tuberculosis ATCC 35837; test: Method of the proportions, Table 3 entry 1
[2] = tested on: Mycobacterium tuberculosis ATCC 35820; test: Method of the proportions, Table 3 entry 2
[3] = tested on: Mycobacterium tuberculosis ATCC 35838; test: Method of the proportions, Table 3 entry 3
[4] = tested on: Mycobacterium tuberculosis ATCC 35822; test: Method of the proportions, Table 3 entry 4
[5] = tested on: Mycobacterium tuberculosis H37 RV; test: Method of the proportions, Table 3 entry 5
[6] = tested on: Mycobacterium tuberculosis 38 strains assayed; test: Method of the proportions, Table 3 entry 6
[7] = tested on: Mycobacterium tuberculosis 8 strains assayed; test: Method of the proportions, Table 3 entry 7
[8] = tested on: Mycobacterium tuberculosis 2 strains assayed; test: Method of the proportions, Table 3 entry 8
[9] = tested on: Mycobacterium tuberculosis 3 strains assayed; test: Method of the proportions, Table 3 entry 9
[10] = tested on: Mycobacterium tuberculosis 1 strain assayed; test: Method of the proportions, Table 3 entry 10
[11] = tested on: Mycobacterium avium-intracellulare complex 5 strains assayed; test: Method of the proportions, Table 3 entry 11
[12] = tested on: Mycobacterium Kansasii 4 strains assayed; test: Method of the proportions, Table 3 entry 12
[13] = concentration analysed 25 μg/ml

4-deoxo-3,4-[(2R)-2-spiro(N-buthyl-2,6-diphenyl-4-piperidil)-2,5-dihydro-1H-imidazo]rifamycin S [RFA 16M]
s (s means sensitive): Sensitivity of strain (s/R) ([1]; concentration analysed 1 μg/ml) | Sensitivity of strain (s/R) ([2]; concentration analysed 1 μg/ml) | Sensitivity of strain (s/R) ([3]; concentration analysed 1 μg/ml) | Sensitivity of strain (s/R) ([4]; concentration analysed 1 μg/ml) | Sensitivity of strain (s/R) ([5]; concentration analysed 1 μg/ml) | Sensitivity of strains (s/R) ([6]; concentration analysed 1 μg/ml) | Sensitivity of strains (s/R) ([7]; concentration analysed 1 μg/ml) | Sensitivity of strains (s/R) ([8]; concentration analysed 1 μg/ml) | Sensitivity of strains (s/R) ([9]; concentration analysed 1 μg/ml) | Sensitivity of strain (s/R) ([10]; concentration analysed 1 μg/ml) | Sensitivity of strains (s/R) ([12]; concentration analysed 1 μg/ml)
s/R: Sensitivity of strains (s/R) ([11]; concentration analysed 1 μg/ml)

NNC(=O)c1cccs1 [TCH, 2-tiophene hydrazo carboxilic acid]
R (R means resistent): Sensitivity of strain (s/R) ([1]; concentration analysed 1 μg/ml) | Sensitivity of strain (s/R) ([2]; concentration analysed 1 μg/ml) | Sensitivity of strain (s/R) ([3]; concentration analysed 1 μg/ml) | Sensitivity of strain (s/R) ([4]; concentration analysed 1 μg/ml) | Sensitivity of strain (s/R) ([5]; concentration analysed 1 μg/ml) | Sensitivity of strains (s/R) ([6]; concentration analysed 1 μg/ml) | Sensitivity of strains (s/R) ([7]; concentration analysed 1 μg/ml) | Sensitivity of strains (s/R) ([8]; concentration analysed 1 μg/ml) | Sensitivity of strains (s/R) ([9]; concentration analysed 1 μg/ml) | Sensitivity of strain (s/R) ([10]; concentration analysed 1 μg/ml) | Sensitivity of strains (s/R) ([11]; concentration analysed 1 μg/ml) | Sensitivity of strains (s/R) ([12]; concentration analysed 1 μg/ml)

4-deoxo-3,4-[(2R)-2-spiro[2,6-bis(4-methoxiphenyl)-4-piperidyl]-2,5-dihydro-1H-imidazo]rifamycin S [RFA 4M]
s (s means sensitive): Sensitivity of strain (s/R) ([1]; concentration analysed 1 μg/ml) | Sensitivity of strain (s/R) ([2]; concentration analysed 1 μg/ml) | Sensitivity of strain (s/R) ([3]; concentration analysed 1 μg/ml) | Sensitivity of strain (s/R) ([4]; concentration analysed 1 μg/ml) | Sensitivity of strain (s/R) ([5]; concentration analysed 1 μg/ml) | Sensitivity of strains (s/R) ([6]; concentration analysed 1 μg/ml) | Sensitivity of strains (s/R) ([7]; concentration analysed 1 μg/ml) | Sensitivity of strains (s/R) ([8]; concentration analysed 1 μg/ml) | Sensitivity of strains (s/R) ([9]; concentration analysed 1 μg/ml) | Sensitivity of strain (s/R) ([10]; concentration analysed 1 μg/ml) | Sensitivity of strains (s/R) ([12]; concentration analysed 1 μg/ml)
s/R: Sensitivity of strains (s/R) ([11]; concentration analysed 1 μg/ml)

CO[C@H]1/C=C/O[C@@]2(C)Oc3c(C)c(O)c4c(c3C2=O)C2=NC3(CCN(CC(C)C)CC3)NC2=C(NC(=O)/C(C)=C\C=C\[C@H](C)[C@H](O)[C@@H](C)[C@@H](O)[C@@H](C)[C@H](OC(C)=O)[C@@H]1C)C4=O [RFB, rifabutin]
s (s means sensitive): Sensitivity of strain (s/R) ([2]; concentration analysed 1 μg/ml) | Sensitivity of strain (s/R) ([3]; concentration analysed 1 μg/ml) | Sensitivity of strain (s/R) ([4]; concentration analysed 1 μg/ml) | Sensitivity of strain (s/R) ([5]; concentration analysed 1 μg/ml) | Sensitivity of strains (s/R) ([6]; concentration analysed 1 μg/ml) | Sensitivity of strains (s/R) ([7]; concentration analysed 1 μg/ml) | Sensitivity of strains (s/R) ([8]; concentration analysed 1 μg/ml) | Sensitivity of strains (s/R) ([9]; concentration analysed 1 μg/ml) | Sensitivity of strain (s/R) ([10]; concentration analysed 1 μg/ml) | Sensitivity of strains (s/R) ([12]; concentration analysed 1 μg/ml)
R (R means resistent): Sensitivity of strain (s/R) ([1]; concentration analysed 1 μg/ml) | Sensitivity of strains (s/R) ([11]; concentration analysed 1 μg/ml)
> 1 µg/mL: MIC ([11]; Mycobacterium avium-intracellulare, five strains, all resistant)

NC(=O)c1cnccn1 [PZ, pyrazinamide]
s (s means sensitive): Sensitivity of strain (s/R) [1, 13] | Sensitivity of strain (s/R) [2, 13] | Sensitivity of strain (s/R) [3, 13] | Sensitivity of strain (s/R) [4, 13] | Sensitivity of strain (s/R) [5, 13] | Sensitivity of strains (s/R) [6, 13] | Sensitivity of strains (s/R) [8, 13] | Sensitivity of strains (s/R) [9, 13] | Sensitivity of strain (s/R) [10, 13]
R (R means resistent): Sensitivity of strains (s/R) [7, 13] | Sensitivity of strains (s/R) [11, 13] | Sensitivity of strains (s/R) [12, 13]

CC[C@@H](CO)NCCN[C@@H](CC)CO [EB, ethambutol]
s (s means sensitive): Sensitivity of strain (s/R) ([1]; concentration analysed 5 μg/ml) | Sensitivity of strain (s/R) ([2]; concentration analysed 5 μg/ml) | Sensitivity of strain (s/R) ([4]; concentration analysed 5 μg/ml) | Sensitivity of strain (s/R) ([5]; concentration analysed 5 μg/ml) | Sensitivity of strains (s/R) ([6]; concentration analysed 5 μg/ml) | Sensitivity of strains (s/R) ([7]; concentration analysed 5 μg/ml) | Sensitivity of strains (s/R) ([8]; concentration analysed 5 μg/ml) | Sensitivity of strains (s/R) ([9]; concentration analysed 5 μg/ml) | Sensitivity of strain (s/R) ([10]; concentration analysed 5 μg/ml)
R (R means resistent): Sensitivity of strain (s/R) ([3]; concentration analysed 5 μg/ml) | Sensitivity of strains (s/R) ([11]; concentration analysed 5 μg/ml) | Sensitivity of strains (s/R) ([12]; concentration analysed 5 μg/ml)
